# “And” between values parts separate entries of the source, which are not always exact repeats. Equal values may be shown once. Where a SMILES comes first, the peptide text is derived from it. [ ]: non-standard residue; d: D form. Hyp = O=C(O)[C@@H]1C[C@@H](O)CN1
# Tests used:
# IL-8 = experiment: Example 9 Luminex, LPS hPBMCs: IL-8; assay type: cell-based, human
# Protocol: (§1) Treatment Human PBMCs were pretreated with YY-101, YDE-011 and YDE-043 or reference compound; Xiidra® at various concentration (ranging from 1 nM to 100 uM) for 2 h before stimulation. An equal volume of 0.5% DMSO was used as a vehicle control. Then, the cells were treated with LPS at 5 ug/ml. The supernatants from treated cells were harvested at 24 h and placed in a 96 well for Luminex cytokine & chemokine profiling using a Luminex 200 multiplex assay (Luminex; R&D system, USA).
# (§2) The main study arm with triplicate wells per group in a 24-well plate: • 1. Blank • 2. PBMC: 0.5% DMSO • 3. PBMC+LPS (5 ug/ml) • 4. PBMC+YY-101 100 uM • 5. PBMC+YY-101 10 uM • 6. PBMC+YY-101 1 uM • 7. PBMC+YY-101 0.1 uM • 8. PBMC+YY-101 0.01 uM • 9. PBMC+LPS (5 ug/ml)+Xiidra®100 uM • 10. PBMC+LPS (5 ug/ml)+Xiidra® 10 uM • 11. PBMC+LPS (5 ug/ml)+Xiidra® 1 uM • 12. PBMC+LPS (5 ug/ml)+Xiidra®0.1 uM • 13. PBMC+LPS (5 ug/ml)+Xiidra®0.01 uM • 14. PBMC+LPS (5 ug/ml)+Xiidra®0.001 uM • 15. PBMC+LPS (5 ug/ml)+YY-101 100 uM • 16. PBMC+LPS (5 ug/ml)+YY-101 10 uM • 17. PBMC+LPS (5 ug/ml)+YY-101 1 uM • 18. PBMC+LPS (5 ug/ml)+YY-101 0.1 uM • 19. PBMC+LPS (5 ug/ml)+YY-101 0.01 uM • 20. PBMC+LPS (5 ug/ml)+YY-101 0.001 uM • 21. PBMC+LPS (5 ug/ml)+YDE-011 100 uM • 22. PBMC+LPS (5 ug/ml)+YDE-011 10 uM • 23. PBMC+LPS (5 ug/ml)+YDE-011 1 uM • 24. PBMC+LPS (5 ug/ml)+YDE-011 0.1 uM • 25. PBMC+LPS (5 ug/ml)+YDE-011 0.01 uM • 26. PBMC+LPS (5 ug/ml)+YDE-011 0.001 uM • 27. PBMC+LPS (5 ug/ml)+YDE-043 100 uM • 28. PBMC+LPS (5 ug/ml)+YDE-043 10 uM • 29. PBMC+LPS (5 ug/ml)+YDE-043 1 uM • 30. PBMC+LPS (5 ug/ml)+YDE-043 0.1 uM • 31. PBMC+LPS (5 ug/ml)+YDE-043 0.01 uM • 32. PBMC+LPS (5 ug/ml)+YDE-043 0.001 uM
# (§3) Multiplex assay was used to measure 30 cytokines and chemokines. The 1:2, 1:10 and 1:200 diluted cell supernatant and serial dilution of the standard were dispensed into a 96 well plate at 50 ul/well. Then, the pre-mixed cocktail of antibody-coated magnetic beads was dispensed at 50 ul/well and incubated at room temperature for 2 h in a horizontal orbital microplate shaker at 800±500 rpm. The beads were washed using a magnetic device to prevent loss. The biotin-antibody was dispensed in 50 ul of each well and incubated at room temperature for 1 h in a shaker at 800±500 rpm. After washing, streptavidin-PE was added at 50 ul/well and incubated at room temperature for 30 min in a shaker under the same conditions. Finally, after washing, wash buffer (100 ul/well) was added to the plate and incubated in a shaker for 2 min. The Luminex™ 200 setting were set according to the manufacturer's protocol. The data was calculated with a standard five-parameter logistic nonlinear regression analysis of the data (xPonent software 4.2, USA). The levels of cytokine/chemokine are normalized to the live cell counts (1×10^5 cells/mL) and presented as concentrations per mL (pg/mL or ng/mL).
# IL-1 beta/IL-1F2 = experiment: Example 9 Luminex, LPS hPBMCs: IL-1 beta/IL-1F2; assay type: cell-based, human
# Protocol: as §1, §2, §3
# [1] = PBMC + LPS(5 ug/ml) + test article 0.001 uM, Mean
# [2] = PBMC + LPS(5 ug/ml) + test article 0.001 uM, single replicates (1st, 2nd, 3rd)
# [3] = PBMC + LPS(5 ug/ml) + test article 0.01 uM, Mean
# [4] = PBMC + LPS(5 ug/ml) + test article 0.01 uM, single replicates (1st, 2nd, 3rd)
# [5] = PBMC + LPS(5 ug/ml) + test article 0.1 uM, Mean
# [6] = PBMC + LPS(5 ug/ml) + test article 0.1 uM, single replicates (1st, 2nd, 3rd)
# [7] = PBMC + LPS(5 ug/ml) + test article 1 uM, Mean
# [8] = PBMC + LPS(5 ug/ml) + test article 1 uM, single replicates (1st, 2nd, 3rd)
# [9] = PBMC + LPS(5 ug/ml) + test article 10 uM, Mean
# [10] = PBMC + LPS(5 ug/ml) + test article 10 uM, single replicates (1st, 2nd, 3rd)
# [11] = PBMC + LPS(5 ug/ml) + test article 100 uM, Mean
# [12] = PBMC + LPS(5 ug/ml) + test article 100 uM, single replicates (1st, 2nd, 3rd)
# [13] = PBMC + test article 0.01 uM, no LPS, Mean
# [14] = PBMC + test article 0.01 uM, no LPS, single replicates (1st, 2nd)
# [15] = PBMC + test article 0.1 uM, no LPS, Mean
# [16] = PBMC + test article 0.1 uM, no LPS, single replicates (1st, 2nd)
# [17] = PBMC + test article 1 uM, no LPS, Mean
# [18] = PBMC + test article 1 uM, no LPS, single replicates (1st, 2nd)
# [19] = PBMC + test article 10 uM, no LPS, Mean
# [20] = PBMC + test article 10 uM, no LPS, single replicates (1st, 2nd)
# [21] = PBMC + test article 100 uM, no LPS, Mean
# [22] = PBMC + test article 100 uM, no LPS, single replicates (1st, 2nd)
# [23] = PBMC + LPS(5 ug/ml) + test article 0.001 uM, single replicates
smiles,measurement,setting,value
CC(C)C[C@H](NC(=O)CNC(=O)[C@H](CC(=O)O)NC(=O)[C@H](CCC(N)=O)NC(=O)CNC(=O)[C@@H]1C[C@@H](O)CN1)C(=O)N[C@@H](C)C(=O)NCC(=O)N1CCC[C@H]1C(=O)N[C@@H](CCCCN)C(=O)O [YY-101] (H-[Hyp]GQDGLAGPK-OH; N-terminus and C-terminus assumed),Concentration,IL-8; [1],47261.8 pg/mL
same,conc/live cell,IL-8; [1],7362.6 pg/10^5
same,Concentration,IL-8; [2],45291.5 pg/mL and 44844.4 pg/mL and 51649.5 pg/mL
same,conc/live cell,IL-8; [2],7945.9 pg/10^5 and 6316.1 pg/10^5 and 7825.7 pg/10^5
same,Concentration,IL-8; [3],45595.7 pg/mL
same,conc/live cell,IL-8; [3],7399.0 pg/10^5
same,Concentration,IL-8; [4],45499.3 pg/mL and 44844.4 pg/mL and 46443.3 pg/mL
same,conc/live cell,IL-8; [4],7109.3 pg/10^5 and 7474.1 pg/10^5 and 7613.7 pg/10^5
same,Concentration,IL-8; [5],41918.3 pg/mL
same,conc/live cell,IL-8; [5],7205.6 pg/10^5
same,Concentration,IL-8; [6],41283.9 pg/mL and 42997.0 pg/mL and 41473.9 pg/mL
same,conc/live cell,IL-8; [6],6658.7 pg/10^5 and 8268.7 pg/10^5 and 6689.3 pg/10^5
same,Concentration,IL-8; [7],46108.9 pg/mL
same,conc/live cell,IL-8; [7],7089.9 pg/10^5
same,Concentration,IL-8; [8],45195.7 pg/mL and 45259.6 pg/mL and 47871.4 pg/mL
same,conc/live cell,IL-8; [8],7173.9 pg/10^5 and 6374.6 pg/10^5 and 7721.2 pg/10^5
same,Concentration,IL-8; [9],46679.5 pg/mL
same,conc/live cell,IL-8; [9],7101.0 pg/10^5
same,Concentration,IL-8; [10],46315.2 pg/mL and 50742.2 pg/mL and 42981.1 pg/mL
same,conc/live cell,IL-8; [10],7719.2 pg/10^5 and 7928.5 pg/10^5 and 5655.4 pg/10^5
same,Concentration,IL-8; [11],46500.3 pg/mL
same,conc/live cell,IL-8; [11],8028.8 pg/10^5
same,Concentration,IL-8; [12],48337.8 pg/mL and 46988.3 pg/mL and 44174.7 pg/mL
same,conc/live cell,IL-8; [12],7672.7 pg/10^5 and 7578.8 pg/10^5 and 8834.9 pg/10^5
same,Concentration,IL-8; [13],4859.1 pg/mL
same,conc/live cell,IL-8; [13],989.4 pg/10^5
same,Concentration,IL-8; [14],2863.8 pg/mL and 6854.4 pg/mL
same,conc/live cell,IL-8; [14],550.7 pg/10^5 and 1428.0 pg/10^5
same,Concentration,IL-8; [15],4413.2 pg/mL
same,conc/live cell,IL-8; [15],835.0 pg/10^5
same,Concentration,IL-8; [16],2701.4 pg/mL and 6125.1 pg/mL
same,conc/live cell,IL-8; [16],614.0 pg/10^5 and 1056.0 pg/10^5
same,Concentration,IL-8; [17],4580.5 pg/mL
same,conc/live cell,IL-8; [17],832.8 pg/10^5
same,Concentration,IL-8; [18],4461.8 pg/mL and 4699.1 pg/mL
same,conc/live cell,IL-8; [18],811.2 pg/10^5 and 854.4 pg/10^5
same,Concentration,IL-8; [19],21138.7 pg/mL
same,conc/live cell,IL-8; [19],3322.0 pg/10^5
same,Concentration,IL-8; [20],37311.2 pg/mL and 4966.2 pg/mL
same,conc/live cell,IL-8; [20],5829.9 pg/10^5 and 814.1 pg/10^5
same,Concentration,IL-8; [21],15311.8 pg/mL
same,conc/live cell,IL-8; [21],2320.9 pg/10^5
same,Concentration,IL-8; [22],19929.7 pg/mL and 10693.9 pg/mL
same,conc/live cell,IL-8; [22],3114.0 pg/10^5 and 1527.7 pg/10^5
same,Concentration,IL-1 beta/IL-1F2; [1],7614.6 pg/mL
same,MFI,IL-1 beta/IL-1F2; [1],1976.7
same,conc/live cell,IL-1 beta/IL-1F2; [1],1188.6 pg/10^5
same,Concentration,IL-1 beta/IL-1F2; [23],7907.5 pg/mL and 7935.5 pg/mL and 7000.7 pg/mL
same,MFI,IL-1 beta/IL-1F2; [23],2055.5 and 2063.0 and 1811.5
same,conc/live cell,IL-1 beta/IL-1F2; [23],1387.3 pg/10^5 and 1117.7 pg/10^5 and 1060.7 pg/10^5
same,Concentration,IL-1 beta/IL-1F2; [3],8390.1 pg/mL
same,MFI,IL-1 beta/IL-1F2; [3],2184.3
same,conc/live cell,IL-1 beta/IL-1F2; [3],1361.7 pg/10^5

# — patent US20230146455A1, “TREATMENT OF INFLAMMATORY DISEASES WITH PEPTIDES AND PHARMACEUTICAL COMPOSITIONS” (Yuyu Pharma, Inc., priority 2020, published 2023)
